From ChEMBL document CHEMBL1133785, “Design, synthesis, and biological evaluation of HIV/FIV protease inhibitors incorporating a conformationally constrained macrocycle with a small P3' residue” (Bioorg Med Chem Lett, 2001)
Starred links: 1 amine or outer side, 2 acyl side, 3 side chain; linkers in the order of their positions; H or OH if unused. Non-standard residues stand in square brackets, D forms with d. Residues, ends and D or L forms follow the SMILES beside them. β3hPhe(2R-OH) = O=C([C@H](O)[C@H](Cc1ccccc1)N[*:1])[*:2]

Tests used:
[1] = target: T1, Human immunodeficiency virus type 1 protease (Human immunodeficiency virus 1, UniProt Q72874, G48V); test: Inhibitory concentration against drug-resistant HIV(G48V) mutant protease
[2] = target: T2, Human immunodeficiency virus type 1 protease (Human immunodeficiency virus 1, UniProt Q72874, V82F); test: Inhibitory concentration against drug-resistant HIV(V82F) mutant protease
[3] = target: T3, Human immunodeficiency virus type 1 protease (Human immunodeficiency virus 1, UniProt Q72874); test: Inhibitory concentration against human immunodeficiency virus (HIV) protease
[4] = target: Human immunodeficiency virus type 1 protease (Human immunodeficiency virus 1, UniProt Q72874, V82A); test: Inhibitory concentration against TL3-resistant HIV(V82A) mutant
[5] = target: T4, Human immunodeficiency virus type 1 protease (Human immunodeficiency virus 1, UniProt Q72874, F53L); test: Inhibitory concentration against TL3-resistant HIV(F53L) mutant protease; settings: pooled result: one value given for 5 cell lines, strains, targets or settings
[6] = tested on: Feline immunodeficiency virus; test: Inhibitory concentration against Feline immunodeficiency virus (FIV) protease; assay type: functional
[7] = target: T3, Human immunodeficiency virus type 1 protease; test: Inhibitory concentration against wild-type human immunodeficiency virus (HIV-WT) protease
[8] = tested on: Feline immunodeficiency virus; test: Inhibitory concentration against wild-type feline immunodeficiency virus (FIV-WT) protease at a concentration of 200 uM; assay type: functional
[9] = tested on: Feline immunodeficiency virus; test: Inhibitory concentration against wild-type feline immunodeficiency virus (FIV-WT) protease; assay type: functional
[10] = target: T3, Human immunodeficiency virus type 1 protease; test: Inhibitory concentration against TL3-resistant HIV(V771) mutant
[11] = target: Human immunodeficiency virus type 1 protease (Human immunodeficiency virus 1, UniProt Q72874, L63P); test: Inhibitory concentration against TL3-resistant HIV(L63P) mutant
[12] = target: T2, Human immunodeficiency virus type 1 protease; test: Inhibitory concentration against drug-resistant HIV(V82F) mutant
[13] = target: T3, Human immunodeficiency virus type 1 protease; test: Inhibitory concentration against TL3-resistant HIV(L241) mutant
[14] = target: T1, Human immunodeficiency virus type 1 protease; test: Inhibitory concentration against drug-resistant HIV(G48V) mutant
[15] = target: T4, Human immunodeficiency virus type 1 protease; test: Inhibitory concentration against TL3-resistant HIV(F53L) mutant
[16] = target: T3, Human immunodeficiency virus type 1 protease; test: Inhibitory concentration against TL3-resistant HIV(M461) mutant

SMILES	IC50 [3]	IC50 [4]	IC50 [6]	IC50 [7]	inhibition at 200 µM [8]	IC50 [9]	also measured
CC(=O)N[C@@H](Cc1c[nH]c2ccccc12)C(=O)N[C@H](C(=O)N[C@@H](Cc1ccccc1)[C@@H](O)C(=O)N[C@H]1Cc2ccc(cc2)OCCCNC(=O)[C@H](C(C)C)NC1=O)C(C)C	10 nM	10 nM	49 nM	–	–	–	IC50 [1]: 71 nM; IC50 [2]: 30 nM; IC50 [5]: 49 nM
COC(=O)[C@H](O)[C@H](Cc1ccccc1)NC(=O)[C@@H](NC(=O)[C@H](Cc1ccc(O)cc1)NC(C)=O)C(C)C	–	–	–	71000 nM	32%	–	–
COC(=O)[C@H](O)[C@H](Cc1ccccc1)NC(=O)[C@@H](NC(=O)[C@H](Cc1ccccc1)NC(C)=O)C(C)C	–	–	–	113000 nM	24%	–	–
CC(C)[C@@H]1NC(=O)[C@@H](NC(=O)C(=O)C(Cc2ccccc2)NC(=O)OC(C)(C)C)Cc2ccc(cc2)OCCCNC1=O (stereo partly specified)	–	–	–	13 nM	–	4000 nM	–
CC(=O)N[C@@H](Cc1ccccc1)C(=O)N[C@H](C(=O)N[C@@H](Cc1ccccc1)[C@@H](O)C(=O)N[C@H]1Cc2ccc(cc2)OCCCNC(=O)[C@H](C(C)C)NC1=O)C(C)C	7 nM	12 nM	35 nM	–	–	–	IC50 [1]: 94 nM; IC50 [2]: 32 nM; IC50 [5]: 79 nM
COC(=O)[C@H](O)[C@H](Cc1ccccc1)NC(=O)[C@@H](NC(=O)[C@H](Cc1c[nH]c2ccccc12)NC(C)=O)C(C)C	–	–	–	14000 nM	–	66000 nM	–
CC(C)[C@@H]1NC(=O)[C@@H](NC(=O)[C@@H](O)[C@H](Cc2ccccc2)NC(=O)OC(C)(C)C)Cc2ccc(cc2)OCCCNC1=O	–	–	–	100 nM	–	46000 nM	–
CC(C)[C@@H]1NC(=O)[C@@H](NC(=O)[C@H](O)[C@H](Cc2ccccc2)NC(=O)OC(C)(C)C)Cc2ccc(cc2)OCCCNC1=O	–	–	–	630 nM	43%	–	–
CC(=O)N[C@@H](Cc1ccc(O)cc1)C(=O)N[C@H](C(=O)N[C@@H](Cc1ccccc1)[C@@H](O)C(=O)N[C@H]1Cc2ccc(cc2)OCCCNC(=O)[C@H](C(C)C)NC1=O)C(C)C	6 nM	11 nM	27 nM	–	–	–	IC50 [10]: 70 nM; IC50 [11]: 70 nM; IC50 [12]: 26 nM; IC50 [13]: 70 nM; IC50 [14]: 57 nM; IC50 [15]: 70 nM; IC50 [16]: 70 nM
CC(=O)N[C@@H](Cc1ccc(O)cc1)C(=O)N[C@H](C(=O)N[C@@H](Cc1ccccc1)[C@@H](O)C(=O)N[C@@H](Cc1ccc(O)cc1)C(=O)N[C@H](C(N)=O)C(C)C)C(C)C (Ac-YV[β3hPhe(2R-OH)]YV-NH2)	–	–	–	212 nM	–	560 nM	–
